# Measured values taken from paper PMC4666032, “KPT-330, a potent and selective exportin-1 (XPO-1) inhibitor, shows antitumor effects modulating the expression of cyclin D1 and survivin in prostate cancer models” (BMC Cancer, 2015).
# Tests used:
# Assay type in all cases: cell-based
# PC3M-pro4 = test: Growth/viability assay, IC50 at 72 h; settings: Homo sapiens; PC3M-pro4, Fig. 2g
# Source text: (§1) Four commercial (LnCaP, 22rv1, DU145 and PC3) and twelve non-commercial (LAPC-4 [44], CWR22, PCb2 [45], PC3Lymphnode, PC3M, PC3M-pro4 [46] and PC3M-Ln4 [47], LnCaP-104S [47], LnCaP104R1 [47], LnCaP-C81 [47], C4-2B [48], VCAP [49] and DuCaP [[49]) cell lines were selected for the in vitro experimental studies for their biological characteristics: LAPC-4 (Androgen receptor [AR] positive, androgen dependent with low Akt/mTOR activities, p53 wt); LnCaP (AR positive, androgen dependent with high Akt/mTOR activities, p53 wt); LnCaP-C81 and LnCaP-C4-2B (AR positive, androgen independent with high Akt/mTOR activities, p53 wt); 22rv1 (AR positive, androgen independent with low Akt/mTOR activities, p53 wt); PC3 (AR negative, with high Akt/mTOR activities and no p53 function (p53 del) and DU145 (AR negative, with low Akt/mTOR activities and mutant p53). PC3 and DU145 have been also transfected with AR to obtain PC3AR [50] and DU-AR [51]. Benign prostatic hyperplasia line (BPH1), and Prostatic epithelial lines (EPN and RWPE-1) were used as non-neoplastic controls. Cells were routinely cultured in appropriate medium supplemented with 10 % fetal bovine serum (FBS), 1 % pen-strep and 1 % L-glutamine (Invitrogen Corporation, Carlsbad, CA). To minimize the risk to work with misidentified and/or contaminated cell lines, DNA profiling was periodically carried out in-house to authenticate cell cultures. DNA was isolated from cell lines using a standard DNA isolation kit. STR profiling was performed by using GenePrint® 10 System (Promega Corporation, Madison, WI). An eight-capillary 3500 Genetic Analyzer (Applied Biosystems Life Technologies Europe BV, Monza, Italy) was used to separate and identify alleles using standard procedures. GenePrint® 10 System allows co-amplification and detection of eight human loci required by the guidelines ASN-0002. For non-commercial cell lines, the authentication process was carried out by comparing STR-fingerprints with those published by Adri van Bokhoven and co-workers. In addition, cell lines were stocked at very low passages and used at <15-20 subcultures.
# (§2) Cells were seeded at a density of 2 x 10^4 cells/mL in 24-well plates. Cells were left to attach and grow in 5 % FCS DMEM for 24 h. After this time, cells were maintained in the appropriate culture conditions. Morphological controls were performed every day with an inverted phase-contrast photomicroscope (Nikon Diaphot, Tokyo, Japan) before cell trypsinization and counting. Cells were trypsinized and resuspended in 1.0 ml of saline, then counted using a NucleoCounter™ NC-100 (automated cell counter systems, Chemotec, Gydevang, Denmark). The effect on cell proliferation was measured by taking the mean cell number with respect to controls over time for the different treatment groups.
# (§3) Viable cells were counted by using the NucleoCounter™ NC-100 (automated cell counter systems, Chemotec, Cydevang, DK). Apoptosis was evaluated by using Tali® Apoptosis Kit - Annexin V Alexa Fluor® 488 & Propidium Iodide-based, (Life Technologies Italia, Monza, Italy). Stained cells were then measured on a Tali® Image-Based Cytometer. Apoptosis was further confirmed by FACS analysis following the instructions of the manufacturer.
# (§4) Six SINE analogs KPT-127, KPT-185, KPT-205, KPT-227, KPT251 and KPT-330 sharing a trifluoromethyl phenyl triazole scaffold, were investigated for their growth inhibitory and apoptotic potential in our PCa cell panel. Therefore, the effects of these XPO1 inhibitors were evaluated on the growth of PCa cell lines performing dose- and time-dependent studies. To examine the dose-dependent effects of these compounds, we treated cells with varying doses of the compounds (0, 1, 10, 50, 100, 500 and 1000 nM) and assessed viability at 72 hours after treatment. The IC50 for each compound was then calculated. […]
# C4-2B = test: Growth/viability assay, IC50 at 72 h; settings: Homo sapiens, Fig. 2g
# Source text: as §1, §2, §3, §4
# 22rv1 = test: Growth/viability assay, IC50 at 72 h; settings: Homo sapiens
# Source text: as §1, §2, §3, §4
# RWPE-1 = test: Growth/viability assay, IC50 at 72 h; settings: Homo sapiens; RWPE-1, Fig. 2g
# Source text: as §1, §2, §3, §4
# DuCaP = test: Growth/viability assay, IC50 at 72 h; settings: Homo sapiens, Fig. 2g
# Source text: as §1, §2, §3, §4
# LAPC-4 = test: Growth/viability assay, IC50 at 72 h; settings: Homo sapiens
# Source text: as §1, §2, §3, §4
# PC3 = test: Growth/viability assay, IC50 at 72 h; settings: Homo sapiens, PC-3
# Source text: as §1, §2, §3, §4
# LnCaP104R1 = test: Growth/viability assay, IC50 at 72 h; settings: Homo sapiens; 104R1, Fig. 2g
# Source text: as §1, §2, §3, §4
# LnCaP-C81 = test: Growth/viability assay, IC50 at 72 h; settings: Homo sapiens; C-81, Fig. 2g
# Source text: as §1, §2, §3, §4
# EPN = test: Growth/viability assay, IC50 at 72 h; settings: Homo sapiens, Fig. 2g
# Source text: as §1, §2, §3, §4
# PC3AR = test: Growth/viability assay, IC50 at 72 h; settings: Homo sapiens, PC3/AR, Fig. 2g
# Source text: as §1, §2, §3, §4
# DU145 = test: Growth/viability assay, IC50 at 72 h; settings: Homo sapiens, DU-145; DU145, Fig. 2g
# Source text: as §1, §2, §3, §4
# PCb2 = test: Growth/viability assay, IC50 at 72 h; settings: Homo sapiens; PCb2, Fig. 2g
# Source text: as §1, §2, §3, §4
# VCaP = test: Growth/viability assay, IC50 at 72 h; settings: Homo sapiens, Fig. 2g
# Source text: as §1, §2, §3, §4
# CWR22 = test: Growth/viability assay, IC50 at 72 h; settings: Homo sapiens; CWR22, Fig. 2g
# Source text: as §1, §2, §3, §4
# LnCaP-104S = test: Growth/viability assay, IC50 at 72 h; settings: Homo sapiens, Fig. 2g
# Source text: as §1, §2, §3, §4
# LnCaP = test: Growth/viability assay, IC50 at 72 h; settings: Homo sapiens
# Source text: as §1, §2, §3, §4
# DU-AR = test: Growth/viability assay, IC50 at 72 h; settings: Homo sapiens, Fig. 2g
# Source text: as §1, §2, §3, §4
# PC3M-Ln4 = test: Growth/viability assay, IC50 at 72 h; settings: Homo sapiens; PC3M-Ln4, Fig. 2g
# Source text: as §1, §2, §3, §4
# BPH-1 = test: Growth/viability assay, IC50 at 72 h; settings: Homo sapiens
# Source text: as §1, §2, §3, §4
# PCa cell lines = test: Growth inhibition across the PCa cell panel; settings: Homo sapiens; 72 hours, range across the cell panel; read-out: IC50 values, range over PCa cell lines
# Source text: as §1, with “STR profiling was performed by using GenePrint® 10 System (Promega Corporation, Madison, WI). An eight-capillary 3500 Genetic Analyzer (Applied Biosystems Life Technologies Europe BV, Monza, Italy) was used to separate and identify alleles using standard procedures. GenePrint® 10 System allows co-amplification and detection of eight human loci required by the guidelines ASN-0002. For non-commercial cell lines, the authentication process was carried out by comparing STR-fingerprints with those published by Adri van Bokhoven and co-workers. In addition, cell lines were stocked at very low passages and used at <15-20 subcultures.” left out
# Cells were seeded at a density of 2 x 10^4 cells/mL in 24-well plates. […] Cells were trypsinized and resuspended in 1.0 ml of saline, then counted using a NucleoCounter™ NC-100 (automated cell counter systems, Chemotec, Gydevang, Denmark). The effect on cell proliferation was measured by taking the mean cell number with respect to controls over time for the different treatment groups.
# as §3, with “Apoptosis was further confirmed by FACS analysis following the instructions of the manufacturer.” left out
# as §4
SMILES,IC50 (PC3M-pro4) [nM],IC50 (C4-2B) [nM],"IC50 (22rv1; 22rv1, Fig. 2g) [nM]",IC50 (RWPE-1) [nM],IC50 (DuCaP) [nM],"IC50 (LAPC-4; LAPC4, LAPC-4, Fig. 2g) [nM]","IC50 (PC3; PC3, Fig. 2g) [nM]",IC50 (LnCaP104R1) [nM],IC50 (LnCaP-C81) [nM],IC50 (EPN) [nM],IC50 (PC3AR) [nM],IC50 (DU145) [nM],IC50 (PCb2) [nM],IC50 (VCaP) [nM],IC50 (CWR22) [nM],IC50 (LnCaP-104S) [nM],IC50 (LnCaP; Fig. 2g) [nM],IC50 (DU-AR) [nM],IC50 (PC3M-Ln4) [nM],"IC50 (BPH-1; BPH-1, BPH1, Fig. 2g) [nM]",also measured
FC(F)(F)c1cc(-c2ncn(/C=C\c3nnco3)n2)cc(C(F)(F)F)c1 [KPT-251],355,200,361,1000,210,628,300,270,240,1000,260,360,320,440,480,200,257,300,210,> 1000,"IC50 (22rv1; 22rv1, 72 hours, Fig. 2a-f): 361 ± 59 nM; IC50 (LAPC-4; LAPC4, 72 hours, Fig. 2a-f): 628 ± 123 nM; IC50 (PC3; PC3, 72 hours, Fig. 2a-f): 380 ± 39 nM; IC50 (LnCaP; 72 hours, Fig. 2a-f): 257 ± 82 nM; IC50 (BPH-1; BPH-1, 72 hours, Fig. 2a-f): > 1000 nM; IC50 (PCa cell lines): 150 to 300 nM"
O=C(/C=C\n1cnc(-c2cc(C(F)(F)F)cc(C(F)(F)F)c2)n1)NNc1cnccn1 [KPT-330],118,66,102,1000,160,365,103,83,80,800,122,105,114,120,160,130,171,124,90,> 1000,"IC50 (BPH-1; BPH-1, 72 hours, Fig. 2a-f): > 1000 nM; IC50 (PCa cell lines): 43 to 201 nM"
